Results taken from ChEMBL document CHEMBL3862023, “Synthesis of N-aryl and N-arylcarbamoylamino derivatives of 1,3-diazinane-5-carboxamide and their activity against glioblastoma LN-229 cell line” (Bioorg Med Chem, 2016).

Assays:
[1] = Solubility of the compound in ethanol; type: physicochemical
[2] = Solubility of the compound in isopropanol; type: physicochemical
[3] = Solubility of the compound in DMSO; type: physicochemical
[4] = Solubility of the compound in CHCl3/TFA; type: physicochemical
[5] = Solubility of the compound in chloroform; type: physicochemical
[6] = Solubility of the compound in DMSO/TFA; type: physicochemical
[7] = Solubility of the compound in trifluoroacetic acid; type: physicochemical
[8] = Cytotoxicity against human LN229 cells assessed as concentration required for induction of cell death after 24 hrs by crystal violet staining based light microscopic analysis; type: functional, LN-229

COc1ccc(NC(=O)C2C(=O)NC(=O)NC2=O)cc1
solubility [1]: Insoluble | solubility [2]: Insoluble

CN1C(=O)NC(=O)C(C(=O)NNC(=O)Nc2ccccc2)C1=O (configuration not stated)
solubility [3]: Insoluble | solubility [4]: Insoluble | solubility [5]: Insoluble | solubility [6]: Insoluble | solubility [1]: Insoluble | solubility [7]: Insoluble | solubility [2]: Insoluble

O=C(O)c1ccc(NC(=O)C2C(=O)NC(=O)N(c3ccccc3)C2=O)cc1 (configuration not stated)
Activity [8]: 100 µg/mL

CN1C(=O)C(C(=O)Nc2ccccc2-c2ccccc2)C(=O)N(C)C1=O
Activity [8]: 100 µg/mL

CN1C(=O)NC(=O)C(C(=O)NNC(=O)Nc2ccc(O)c([N+](=O)[O-])c2)C1=O (configuration not stated)
solubility [3]: Insoluble | solubility [4]: Insoluble | solubility [5]: Insoluble | solubility [6]: Insoluble | solubility [1]: Insoluble | solubility [7]: Insoluble | solubility [2]: Insoluble

O=C(NNC(=O)C1C(=O)NC(=O)N(c2ccccc2)C1=O)Nc1ccc(O)cc1 (configuration not stated)
solubility [3]: Insoluble | solubility [4]: Insoluble | solubility [5]: Insoluble | solubility [6]: Insoluble | solubility [1]: Insoluble | solubility [7]: Insoluble | solubility [2]: Insoluble

O=C1NC(=O)N(c2ccccc2)C(=O)C1C(=O)Nc1nc2ccc([N+](=O)[O-])cc2s1 (configuration not stated)
Activity [8]: 100 µg/mL

O=C1NC(=O)N(c2ccccc2)C(=O)C1C(=O)Nc1ccc(Br)cc1 (configuration not stated)
Activity [8]: 100 µg/mL

O=C1NC(=O)C(C(=O)Nc2cccc(Br)c2)C(=O)N1
solubility [1]: Insoluble | Activity [8]: 100 µg/mL | solubility [2]: Insoluble

O=C1NC(=O)C(C(=O)Nc2ccc(Cl)c(Cl)c2)C(=O)N1
solubility [1]: Insoluble | solubility [2]: Insoluble

O=C1NC(=O)N(c2ccccc2)C(=O)C1C(=O)Nc1cccc2ccccc12 (configuration not stated)
Activity [8]: 100 µg/mL

CN1C(=O)C(C(=O)NNC(=O)Nc2cccc(O)c2)C(=O)N(C)C1=O
solubility [3]: Insoluble | solubility [4]: Insoluble | solubility [5]: Insoluble | solubility [6]: Insoluble | solubility [1]: Insoluble | solubility [7]: Insoluble | solubility [2]: Insoluble

CN1C(=O)NC(=O)C(C(=O)NNC(=O)Nc2ccc(Cl)c(Cl)c2)C1=O (configuration not stated)
solubility [3]: Insoluble | solubility [4]: Insoluble | solubility [5]: Insoluble | solubility [6]: Insoluble | solubility [1]: Insoluble | solubility [7]: Insoluble | solubility [2]: Insoluble

COc1ccc(NC(=O)C2C(=O)NC(=O)N(c3ccccc3)C2=O)cc1 (configuration not stated)
Activity [8]: 100 µg/mL

CN1C(=O)C(C(=O)Nc2ccc(Cl)c(Cl)c2)C(=O)N(C)C1=O
Activity [8]: 100 µg/mL

COc1cc(NC(=O)C2C(=O)NC(=O)N(c3ccccc3)C2=O)cc(OC)c1OC (configuration not stated)
Activity [8]: 100 µg/mL

CN1C(=O)C(C(=O)Nc2ccc(O)cc2)C(=O)N(C)C1=O
Activity [8]: 100 µg/mL

O=C1NC(=O)C(C(=O)Nc2ccccc2)C(=O)N1
solubility [1]: Insoluble | solubility [2]: Insoluble

O=C1NC(=O)N(c2ccccc2)C(=O)C1C(=O)Nc1ccc(Cl)cc1Cl (configuration not stated)
Activity [8]: 100 µg/mL

O=C1NC(=O)C(C(=O)Nc2cc(Cl)ccc2Cl)C(=O)N1
solubility [1]: Insoluble | solubility [2]: Insoluble

O=C1NC(=O)N(c2ccccc2)C(=O)C1C(=O)Nc1ccccc1 (configuration not stated)
Activity [8]: 100 µg/mL

O=C1NC(=O)C(C(=O)Nc2cccc(O)c2)C(=O)N1
solubility [1]: Insoluble | solubility [2]: Insoluble

CN1C(=O)C(C(=O)Nc2ccccc2O)C(=O)N(C)C1=O
Activity [8]: 100 µg/mL

CN1C(=O)C(C(=O)NNC(=O)Nc2ccccc2)C(=O)N(C)C1=O
solubility [3]: Insoluble | solubility [4]: Insoluble | solubility [5]: Insoluble | solubility [6]: Insoluble | solubility [1]: Insoluble | solubility [7]: Insoluble | solubility [2]: Insoluble

CN1C(=O)C(C(=O)Nc2ccc(Cl)cc2Cl)C(=O)N(C)C1=O
Activity [8]: 100 µg/mL

Cc1ccc(NC(=O)C2C(=O)NC(=O)NC2=O)cc1C
solubility [1]: Insoluble | Activity [8]: 100 µg/mL | solubility [2]: Insoluble

O=C1NC(=O)C(C(=O)NNC(=O)Nc2cccc(O)c2)C(=O)N1
solubility [3]: Insoluble | solubility [4]: Soluble | solubility [5]: Insoluble | solubility [6]: Soluble | solubility [1]: Insoluble | solubility [7]: Soluble | solubility [2]: Insoluble

O=C1NC(=O)C(C(=O)Nc2ccc3ccccc3c2)C(=O)N1
Activity [8]: 100 µg/mL

CN1C(=O)NC(=O)C(C(=O)NNC(=O)Nc2cccc(O)c2)C1=O (configuration not stated)
solubility [3]: Insoluble | solubility [4]: Insoluble | solubility [5]: Insoluble | solubility [6]: Insoluble | solubility [1]: Insoluble | solubility [7]: Insoluble | solubility [2]: Insoluble

O=C1NC(=O)C(C(=O)Nc2ccc(Br)cc2)C(=O)N1
solubility [1]: Insoluble | solubility [2]: Insoluble

O=C1NC(=O)N(c2ccccc2)C(=O)C1C(=O)Nc1ccc2cc3ccccc3cc2c1 (configuration not stated)
Activity [8]: 100 µg/mL

CN1C(=O)C(C(=O)Nc2cccc(O)c2)C(=O)N(C)C1=O
Activity [8]: 100 µg/mL

O=C1NC(=O)C(C(=O)NNC(=O)Nc2ccc(F)cc2)C(=O)N1
solubility [3]: Insoluble | solubility [4]: Soluble | solubility [5]: Insoluble | solubility [6]: Soluble | solubility [1]: Insoluble | solubility [7]: Soluble | solubility [2]: Insoluble

COc1ccc(NC(=O)C2C(=O)NC(=O)N(C)C2=O)cc1 (configuration not stated)
Activity [8]: 100 µg/mL

CN1C(=O)NC(=O)C(C(=O)NNC(=O)Nc2ccc(F)cc2)C1=O (configuration not stated)
solubility [3]: Insoluble | solubility [4]: Insoluble | solubility [5]: Insoluble | solubility [6]: Insoluble | solubility [1]: Insoluble | solubility [7]: Insoluble | solubility [2]: Insoluble

O=C1NC(=O)C(C(=O)Nc2cccc(Cl)c2Cl)C(=O)N1
solubility [1]: Insoluble | solubility [2]: Insoluble

CN1C(=O)NC(=O)C(C(=O)Nc2cccc(O)c2)C1=O (configuration not stated)
Activity [8]: 100 µg/mL

COc1ccc(NC(=O)C2C(=O)NC(=O)NC2=O)cc1OC
solubility [1]: Insoluble | solubility [2]: Insoluble

CN1C(=O)C(C(=O)Nc2cccc(Br)c2)C(=O)N(C)C1=O
Activity [8]: 100 µg/mL

O=C1NC(=O)C(C(=O)Nc2ccc(O)cc2)C(=O)N1
solubility [1]: Insoluble | Activity [8]: 100 µg/mL | solubility [2]: Insoluble

O=C1NC(=O)C(C(=O)Nc2ccc(Cl)cc2Cl)C(=O)N1
solubility [1]: Insoluble | solubility [2]: Insoluble

O=C1NC(=O)C(C(=O)Nc2cccc3ccccc23)C(=O)N1
Activity [8]: 100 µg/mL

CN1C(=O)C(C(=O)Nc2ccc([N+](=O)[O-])cc2)C(=O)N(C)C1=O
Activity [8]: 100 µg/mL

CN1C(=O)C(C(=O)Nc2ccc3ccccc3c2)C(=O)N(C)C1=O
Activity [8]: 100 µg/mL

NC(=O)c1ccc(NC(=O)C2C(=O)NC(=O)NC2=O)cc1
solubility [1]: Insoluble | solubility [2]: Insoluble

O=C1NC(=O)C(C(=O)Nc2ccc(Cl)cc2)C(=O)N1
solubility [1]: Insoluble | solubility [2]: Insoluble

CN1C(=O)C(C(=O)Nc2cccc(Cl)c2Cl)C(=O)N(C)C1=O
Activity [8]: 100 µg/mL

O=C1NC(=O)C(C(=O)Nc2cc(Cl)cc(Cl)c2)C(=O)N1
solubility [1]: Insoluble | solubility [2]: Insoluble

CN1C(=O)C(C(=O)Nc2cccc(I)c2)C(=O)N(C)C1=O
Activity [8]: 100 µg/mL

COc1cc(NC(=O)C2C(=O)NC(=O)NC2=O)cc(OC)c1OC
solubility [1]: Insoluble | Activity [8]: 100 µg/mL | solubility [2]: Insoluble

CN1C(=O)NC(=O)C(C(=O)Nc2ccc3cc4ccccc4cc3c2)C1=O (configuration not stated)
Activity [8]: 100 µg/mL

O=C1NC(=O)C(C(=O)Nc2ccc(F)cc2)C(=O)N1
solubility [1]: Insoluble | solubility [2]: Insoluble

CN1C(=O)C(C(=O)Nc2ccc(Br)cc2)C(=O)N(C)C1=O
Activity [8]: 100 µg/mL

CN1C(=O)C(C(=O)Nc2ccc3cc4ccccc4cc3c2)C(=O)N(C)C1=O
Activity [8]: 100 µg/mL

O=C1NC(=O)C(C(=O)Nc2ccc([N+](=O)[O-])cc2)C(=O)N1
solubility [1]: Insoluble | Activity [8]: 100 µg/mL | solubility [2]: Insoluble

O=C1NC(=O)N(c2ccccc2)C(=O)C1C(=O)Nc1ccc(I)cc1 (configuration not stated)
Activity [8]: 100 µg/mL

CCOC(=O)c1ccc(NC(=O)C2C(=O)NC(=O)NC2=O)cc1
solubility [1]: Insoluble | Activity [8]: 100 µg/mL | solubility [2]: Insoluble

CN1C(=O)C(C(=O)Nc2ccc(-c3ccccc3)cc2)C(=O)N(C)C1=O
Activity [8]: 100 µg/mL

O=C1NC(=O)C(C(=O)Nc2ccc3cc4ccccc4cc3c2)C(=O)N1
Activity [8]: 100 µg/mL

CN1C(=O)C(C(=O)Nc2ccc(C(=O)O)cc2)C(=O)N(C)C1=O
Activity [8]: 100 µg/mL

CN1C(=O)NC(=O)C(C(=O)Nc2ccc(Cl)cc2)C1=O (configuration not stated)
Activity [8]: 100 µg/mL

CN1C(=O)C(C(=O)Nc2cccc3ccccc23)C(=O)N(C)C1=O
Activity [8]: 100 µg/mL

CCOC(=O)c1ccc(NC(=O)C2C(=O)N(C)C(=O)N(C)C2=O)cc1
Activity [8]: 100 µg/mL

CN1C(=O)C(C(=O)Nc2cc(Cl)ccc2Cl)C(=O)N(C)C1=O
Activity [8]: 100 µg/mL

O=C1NC(=O)C(C(=O)Nc2cccc([N+](=O)[O-])c2)C(=O)N1
solubility [1]: Insoluble | solubility [2]: Insoluble

O=C1NC(=O)C(C(=O)Nc2ccc(I)cc2)C(=O)N1
solubility [1]: Insoluble | solubility [2]: Insoluble

CN1C(=O)C(C(=O)NNc2ccc([N+](=O)[O-])cc2)C(=O)N(C)C1=O
Activity [8]: 100 µg/mL

O=C1NC(=O)C(C(=O)Nc2ccc(C(=O)O)cc2)C(=O)N1
solubility [1]: Insoluble | solubility [2]: Insoluble

COc1ccc2nc(NC(=O)C3C(=O)NC(=O)N(c4ccccc4)C3=O)sc2c1 (configuration not stated)
Activity [8]: 100 µg/mL
